# Results taken from US11116741B2, “Method for the treatment of valvular heart disease comprising administering a composition comprising sarpogrelate” (CEVA SANTE ANIMALE, priority 2017, dated 2021).
# Entries after “also recorded” stand apart in the source; their conditions may differ.
# What was measured:
# [1] = Blood 5-HT and urine 5-HIAA concentrations in mice given NdF by mini-osmotic pump; assay type: in vivo
# Protocol: (§1) These lesions appear as endothelial cells recruitment and migration into the valvular leaflets with intense production of extracellular matrix.
# (§2) Before the start of the experiment, baseline systolic blood pressure, heart rate and body weight were measured. […] The dose of sarpogrelate administered was 2 mg/kg/day. The experiment started two days after the subcutaneous implantation so as to allow the activation of the mini-osmotic pump. Systolic blood pressure, heart rate and body weight were measured each week until the end of the experiment. At the term (day 28), urinary samples were collected from mice to determine 5-hydroxy-indol acetic acid concentration (5-HIAA which is a serotonin metabolite).
# Then, mice were euthanized using an injection of a […] dose of pentobarbital followed by an intra-cardiac blood puncture and whole blood serotonin concentration was determined.
# All plasma was collected and analyzed in a single run.
# [2] = Body weight, food intake, water intake, systolic blood pressure and heart rate in the NdF mouse model; assay type: in vivo, mice; settings: for Water intake: estimation of the water intake per cage per day: g = ml
# Protocol: as §2
# [3] = system: mitral valve leaflet; test: Histological morphometric analysis of mitral valve (thickness, cellularity) in NdF induced mitral remodeling; assay type: in vivo, mice
# Protocol: as §1, §2
# For morphometric analysis, one sagittal section (5 μm in thickness) is obtained after paraffin embedding and stained with hematoxylin and eosin stain. In each section, mitral valves are examined and cellularization counted. Extreme care is taken in sectioning the heart so that the valves are mainly cut transversely (with the attachment sides of the leaflets visible on both ends of the valve).
# Valve histological morphometric analysis is performed visually using a microscope (Leica DM750®, Germany) with a 40× calibrated objective connected to a camera and a data acquisition and analysis system (Leica/Microsystems®LAS V4.8) by a single operator. Practically, on each section, the operator applies a large square of 250 μm×250 μm divided in 100 equal parts of 25 μm×25 μm each. For the quantification, the whole mitral valve leaflet section is divided in three equal parts. The proximal region is the one nearest the base cusp, followed by the medial and the distal regions. The proximal, medial and distal parts thicknesses are measured on three distinct sites in each region. The mean result is expressed in μm, in table 8.
# The density of endothelial cells is evaluated in proximal, medial and distal regions. The numbers of cells is determined on a leaflet length of 25×4 μm (100 μm2). The result (mean) is expressed in number of cells per 100 μm2.
# [4] = biological target: 5-HT2A receptor compared to the 5-HT2B one (Homo sapiens, UniProt P28223); settings: in words; Life Sci. 73, 193-207; cited from earlier work
# Chain of 5-HT2A receptor compared to the 5-HT2B one (P28223 whole entry): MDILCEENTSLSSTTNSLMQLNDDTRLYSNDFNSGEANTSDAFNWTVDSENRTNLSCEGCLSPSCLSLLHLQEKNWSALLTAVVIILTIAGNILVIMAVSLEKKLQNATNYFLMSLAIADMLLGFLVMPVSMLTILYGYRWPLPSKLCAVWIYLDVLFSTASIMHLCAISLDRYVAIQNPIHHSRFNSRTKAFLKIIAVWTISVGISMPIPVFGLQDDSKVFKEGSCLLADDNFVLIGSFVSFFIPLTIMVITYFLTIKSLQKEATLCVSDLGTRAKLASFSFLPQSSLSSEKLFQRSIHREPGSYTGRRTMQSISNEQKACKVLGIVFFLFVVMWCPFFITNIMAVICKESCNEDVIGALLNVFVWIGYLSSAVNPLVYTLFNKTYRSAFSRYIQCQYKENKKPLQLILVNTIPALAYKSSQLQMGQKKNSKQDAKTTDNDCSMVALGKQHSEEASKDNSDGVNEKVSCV
compound,measurement,setting,value
"C[C@H](N)Cc1cccc(C(F)(F)F)c1 [NdF, nordexfenfluramine]",Effect on total blood (plasma) concentration of serotonin (5-HT),[1]; in words,increases
same,5-HIAA,"[1]; urine, day 28, mean, NdF 1 mg/kg/day, sarpogrelate 2 mg/kg/day",10.62 mg/L
same,5-HT,"[1]; whole blood, day 28, mean, NdF 1 mg/kg/day, sarpogrelate 2 mg/kg/day",2259.78 µg/L
same,Body weight,[2]; Week 0 (baseline),25.10 g
same,Heart rate,[2]; Week 0 (baseline),539.7 beats/min
same,Systolic blood pressure,[2]; Week 0 (baseline),100.2 mmHg
same,Body weight,[2]; Week 1,26.20 g
same,Food intake: estimation of the food intake for each mouse per week,[2]; Week 1,32.83 g
same,Heart rate,[2]; Week 1,579.5 beats/min
same,Systolic blood pressure,[2]; Week 1,108.9 mmHg
same,Water intake: estimation of the water intake per cage per day,[2]; Week 1,31.43 g
same,Food intake: estimation of the food intake for each mouse per week,[2]; Week 2,30.71 g
same,Heart rate,[2]; Week 2,571.8 beats/min
same,Systolic blood pressure,[2]; Week 2,97.5 mmHg
same,Water intake: estimation of the water intake per cage per day,[2]; Week 2,31.86 g
same,Body weight,[2]; Week 3,27.20 g
same,Food intake: estimation of the food intake for each mouse per week,[2]; Week 3,35.13 g
same,Heart rate,[2]; Week 3,498.0 beats/min
same,Water intake: estimation of the water intake per cage per day,[2]; Week 3,32.14 g
same,Body weight,[2]; Week 4,26.50 g
same,Food intake: estimation of the food intake for each mouse per week,[2]; Week 4,26.38 g
same,Heart rate,[2]; Week 4,559.3 beats/min
same,Systolic blood pressure,[2]; Week 4,99.5 mmHg
same,Water intake: estimation of the water intake per cage per day,[2]; Week 4,33.07 g
same,Mitral valve thickness (mean),"[3]; day 28, mean of proximal, medial and distal parts, NdF 1 mg/kg/day, sarpogrelate 2 mg/kg/day",67.467 μm
same,Endothelial cellularity (mean),"[3]; day 28, mitral valve",9.988 cells/0.01 mm^2
same,Interstitial cellularity (mean),"[3]; day 28, mitral valve",22.011 cells/0.01 mm^2
same,Effect on mitral valve thickness,[3]; in words,massive increase
same,Effect on valve interstitial cellularity,[3]; in words,increase
COc1cccc(CCc2ccccc2OCC(CN(C)C)OC(=O)CCC(=O)O)c1 (centres unmarked) [sarpogrelate],Effect on total blood (plasma) concentration of serotonin (5-HT),[1]; in words,reduces
same,Effect on urinary 5-HIAA,[1]; in words,reduces
same,Effect on interstitial migration of endothelial cells,[3]; in words,reduces
same,Effect on mitral valve thickness,[3]; in words,nearly completely prevented; also recorded: markedly reduces
same,Effect on valve interstitial cellularity,[3]; in words,prevents the increase
same,Receptor subtype preference (5-HT2A vs 5-HT2B),[4],preferably blocking the 5-HT2A receptor
